These results are taken from US6596878B2, “Methods and compositions for inhibiting cell proliferative disorders” (Yissum Research & Development Company of the Hebrew …, priority 1994, dated 2003).

The target in one assay is T1, HER2 (Homo sapiens, UniProt P04626).
T1 construct: the human mammary carcinoma line BT474 (ATCC HTB2) expressing HER2; endogenous in cells; host or cells: BT474 human mammary carcinoma cells
Briefly: HER2-BT474 whole cell kinase ELISA. In kind it is cell-based. How it is done:
HER2-BT474 assays measuring whole cell HER2 activity was carried out as described below:
All the following steps are at room temperature and aseptically, unless stated otherwise. All ELISA plate washing is by rinsing with distilled water three times and once with TBST.
Incubate the cells in 5% CO2 at 37° C. overnight.
2. ELISA Plate Coating and Blocking

The target in a further assay is T2, human EGF receptor (Homo sapiens, UniProt P00533).
T2 construct: expressed in transfected cells; host or cells: NIH3T3 clone C7 (EGFR/C7; mouse fibroblasts)
T2 sequence (P00533 25-1210): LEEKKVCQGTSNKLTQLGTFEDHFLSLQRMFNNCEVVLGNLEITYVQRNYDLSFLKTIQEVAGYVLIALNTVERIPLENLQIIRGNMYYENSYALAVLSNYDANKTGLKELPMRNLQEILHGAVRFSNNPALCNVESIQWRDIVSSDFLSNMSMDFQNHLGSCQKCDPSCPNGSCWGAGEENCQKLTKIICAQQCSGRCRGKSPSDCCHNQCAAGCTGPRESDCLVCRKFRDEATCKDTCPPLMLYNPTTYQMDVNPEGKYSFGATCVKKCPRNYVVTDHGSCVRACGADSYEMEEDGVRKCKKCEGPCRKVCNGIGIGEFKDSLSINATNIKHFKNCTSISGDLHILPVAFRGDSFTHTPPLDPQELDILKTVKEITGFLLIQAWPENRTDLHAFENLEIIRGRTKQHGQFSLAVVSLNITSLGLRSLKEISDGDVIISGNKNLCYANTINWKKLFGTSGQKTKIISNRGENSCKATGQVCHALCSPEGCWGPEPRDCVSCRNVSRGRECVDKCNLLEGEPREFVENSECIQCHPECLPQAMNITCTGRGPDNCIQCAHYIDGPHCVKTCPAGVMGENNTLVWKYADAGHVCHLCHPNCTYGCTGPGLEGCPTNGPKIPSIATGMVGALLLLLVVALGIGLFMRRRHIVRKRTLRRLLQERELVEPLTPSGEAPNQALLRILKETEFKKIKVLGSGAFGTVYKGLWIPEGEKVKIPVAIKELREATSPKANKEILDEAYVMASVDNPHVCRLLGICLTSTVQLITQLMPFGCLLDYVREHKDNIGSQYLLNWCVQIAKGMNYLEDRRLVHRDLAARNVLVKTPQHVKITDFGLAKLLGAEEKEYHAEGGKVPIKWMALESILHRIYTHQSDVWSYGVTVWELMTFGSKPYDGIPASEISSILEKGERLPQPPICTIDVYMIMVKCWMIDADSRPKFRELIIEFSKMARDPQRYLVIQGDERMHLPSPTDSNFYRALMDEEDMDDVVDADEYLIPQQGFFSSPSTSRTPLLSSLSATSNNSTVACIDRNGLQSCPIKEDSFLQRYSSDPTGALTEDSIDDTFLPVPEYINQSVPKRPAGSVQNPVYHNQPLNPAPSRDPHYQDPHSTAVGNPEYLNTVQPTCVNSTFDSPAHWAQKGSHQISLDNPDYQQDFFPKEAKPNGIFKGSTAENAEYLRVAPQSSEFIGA
Briefly: EGF-receptor whole cell kinase assay (EGFR-3T3). The class given is cell-based. The method, then:
(§1) The following target cells were used for cellular kinaseassays: NIH3T3 clone C7 (Honegger et al., supra) engineered to over-express human EGF receptor; NIH3T3 cells engineered to over-express a chimeric receptor containing the EGFR extracellular domain and the HER2 intracellular kinase domain; the human mammary carcinoma line BT474 (ATCC HTB2) expressing HER2; and the human glioblastoma line U1242 that expresses PDGFR-β. Growth assays were carried out using human mammary epithelial SKBR3 (ATCC HTB30) cells, SKOV3 (ATCC HTB77) human ovarian cancer cell line, A431 cells, MCF7 human breast carcinoma cells, MCF7 cells overexpress the HER2 kinase (MCF7-HER2), NIH3T3 cells, and NIH3T3 cells overexpressing the HER2 kinase (3T3-HER2).
Unless otherwise stated the effect of various compounds on receptor tyrosine kinases were assayed as described in this section.
1. EGF-receptor Whole Cell Kinase Assay
EGFR kinase activity (EGFR-3T3 assay) in whole cells was measured as described below:
The following protocol was used:
A. Coat ELISA plates (Corning, 96 well, Cat. #25805-96) with 05-101 antibody at 0.5 μg per well in PBS, 150 μl final volume/well, and store overnight at 4° C. Coated plates are good for up to 10 days when stored at 4° C.
B. On day of use, remove coating buffer and replace with blocking buffer (5% Carnation Instant Non-Fat Dry Milk in PBS). Incubate the plate, shaking, at room temperature (about 23° C. to 25° C.) for 30 minutes. Just prior to use, remove blocking buffer and wash plate 4 times with TBST buffer.
A. EGFR/C7 cell line (Honegger, et al., Cell 51:199-209, 1987) can be use for this assay.
B. Choose dishes having 80-90% confluence for the experiment. Trypsinize cells and stop reaction by adding 10% CS DMEM medium. Suspend cells in DMEM medium (10% CS DMEM medium) and centrifuge once at 1000 rpm, and once at room temperature for 5 minutes.
C. Resuspend cells in seeding medium (DMEM, 0.5% bovine serum), and count the cells using trypan blue. Viability above 90% is acceptable. Seed cells in DMEM medium (0.5% bovine serum) at a density of 10,000 cells per well, 100 μl per well, in a 96 well microtiter plate. Incubate seeded cells in 5% CO2 at 37° C. for about 40 hours.
A. Check seeded cells for contamination using an inverted microscope. Dilute drug stock (10 mg/ml in DMSO) 1:10 in DMEM medium, then transfer 5 μl to a test well for a final drug dilution of 1:200 and a final DMSO concentration of […]. Control wells receive DMSO alone. Incubate in 5% CO2 at 37° C. for one hour.
B. Prepare EGF ligand: dilute stock EGF in DMEM so that upon transfer of 10 μl dilute EGF (1:12 dilution), 25 nM final concentration is attained.
C. Prepare fresh HNTG* sufficient for 100 μl per well; and place on ice.
D. After two hours incubation with drug, add prepared EGF ligand to cells, 10 μl per well, to yield a final concentration of 25 nM. Control wells receive DMEM alone. Incubate, shaking, at room temperature, for 5 minutes.
E. Remove drug, EGF, and DMEM. Wash cells twice with PBS. Transfer HNTG* to cells, 100 μl per well. Place on ice for 5 minutes. Meanwhile, remove blocking buffer from other ELISA plate and wash with TBST as described above.
F. With a pipette tip securely fitted to a micropipettor, scrape cells from plate and homogenize cell material by repeatedly aspirating and dispensing the HNTG* lysis buffer. Transfer lysate to a coated, blocked, and washed ELISA plate. Incubate shaking at room temperature for one hour.
G. Remove lysate and wash 4 times with TBST. Transfer freshly diluted anti-Ptyr antibody to ELISA plate at 100 μl per well. Incubate shaking at room temperature for 30 minutes in the presence of the anti-Ptyr antiserum (1:3000 dilution in TBST).
H. Remove the anti-Ptyr antibody and wash 4 times with TBST. Transfer the freshly diluted TAGO anti-rabbit IgG antibody to the ELISA plate at 100 μl per well.

Assay [1] relates to MCF7 human breast carcinoma cells. Put plainly: MCF-7 SRB growth assay. In kind it is cell-based. The conditions noted are these: Table VI, 10% FBS, four days.
From the text: as §1, with “This example illustrates the ability of the exemplary compounds to inhibit receptor tyrosine kinases, such as HER2 and/or EGFR. The” for “The”
6. MCF-7 SRB Growth Assay
(§2) MCF-7 cells are seeded at 2000 cells/ well in a 96-well flat bottom plate in normal growth media, which was 10% FBS/RPMI supplemented with 2 mM Glutamine. The plate of cells is incubated for about 24 hours at 37° C. after which it receives an equal volume of compound dilution per well making the total volume per well 200 μl. The compound is prepared at 2 times the desired highest final concentration and serially diluted in the normal growth media in a 96-well round bottom plate and then transferred to plate of cells. DMSO serves as the vector control up to 0.2% as final concentration. The cells are then incubated at 37° C. in a humidified 5% CO2 incubator.
(§3) Four days following dosing of compound, the media is discarded and 200 μl/well of ice-cold 10% TCA (Trichloroacetic Acid) is added to fix cells. After 60 minutes at 4° C., the TCA is discarded and the plate is rinsed 5 times with water. The plate is then air-dried and 100 μl/well of 0.4% SRB (Sulforhodamine B from Sigma) in 1% Acetic Acid is added to stain cells for 10 minutes at room temperature. The SRB is discarded and the plate is rinsed 5 times with 1% Acetic Acid. After the plate is completely dried, 100 μl/well of 10 mM Tris-base is added to solubilize the dye. After 5 to 10 minutes, the plate is read on a Dynatech ELISA Plate Reader at dual wavelengths at 570 nm and 630 nm.
On the technique in general: In SRB staining, fixed cells bind dye roughly in proportion to their protein.

Assay [2] relates to MCF7 cells overexpress the HER2 kinase (MCF7-HER2). Put plainly: MCF-7/HER-2 SRB growth assay. The class given is cell-based, human. Particulars: Table VI, 0.5% FBS, four days.
From the text: as §1, with “This example illustrates the ability of the exemplary compounds to inhibit receptor tyrosine kinases, such as HER2 and/or EGFR. The” for “The”
as §2, §3
8. MCF-7/HER-2 SRB Growth Assay
The protocol is basically the same as that above (for the MCF-7 Growth Assay) except that immediately before the compound is added, the normal growth media is removed and 0.5% FBS/RPMI supplemented with 2 mM Glutamine is added onto the cells. The compound is also prepared in this 0.5% serum media. The plate of cells is incubated for four days and developed as usual.

Where [3] appears, read: Table III, cellular kinase assay, class symbol, read-out: HER2.
Where [4] appears, read: Table V, read-out: Estimated IC50 Cellular Kinase Assays HER2 (BT474).
Setting [5] is: Table III, cellular kinase assay, class symbol, read-out: EGFR.
The mark [6] stands for this setting: Table V, read-out: Estimated IC50 Cellular Kinase Assays EGFR (EGF-3T3).
[7] abbreviates: Table VI, cellular kinase assay, read-out: HER2-BT474.
Where [8] appears, read: Table VI, cellular kinase assay, read-out: EGFR-3T3.
Where [9] appears, read: HER2-BT474, Table VI, cellular kinase assay.
Where [10] appears, read: Estimated IC50 Cellular Kinase Assays HER2 (BT474), Table V.

Read-outs that look alike come from different tables or passages of the source.

T1 sequence (P04626 23-1255): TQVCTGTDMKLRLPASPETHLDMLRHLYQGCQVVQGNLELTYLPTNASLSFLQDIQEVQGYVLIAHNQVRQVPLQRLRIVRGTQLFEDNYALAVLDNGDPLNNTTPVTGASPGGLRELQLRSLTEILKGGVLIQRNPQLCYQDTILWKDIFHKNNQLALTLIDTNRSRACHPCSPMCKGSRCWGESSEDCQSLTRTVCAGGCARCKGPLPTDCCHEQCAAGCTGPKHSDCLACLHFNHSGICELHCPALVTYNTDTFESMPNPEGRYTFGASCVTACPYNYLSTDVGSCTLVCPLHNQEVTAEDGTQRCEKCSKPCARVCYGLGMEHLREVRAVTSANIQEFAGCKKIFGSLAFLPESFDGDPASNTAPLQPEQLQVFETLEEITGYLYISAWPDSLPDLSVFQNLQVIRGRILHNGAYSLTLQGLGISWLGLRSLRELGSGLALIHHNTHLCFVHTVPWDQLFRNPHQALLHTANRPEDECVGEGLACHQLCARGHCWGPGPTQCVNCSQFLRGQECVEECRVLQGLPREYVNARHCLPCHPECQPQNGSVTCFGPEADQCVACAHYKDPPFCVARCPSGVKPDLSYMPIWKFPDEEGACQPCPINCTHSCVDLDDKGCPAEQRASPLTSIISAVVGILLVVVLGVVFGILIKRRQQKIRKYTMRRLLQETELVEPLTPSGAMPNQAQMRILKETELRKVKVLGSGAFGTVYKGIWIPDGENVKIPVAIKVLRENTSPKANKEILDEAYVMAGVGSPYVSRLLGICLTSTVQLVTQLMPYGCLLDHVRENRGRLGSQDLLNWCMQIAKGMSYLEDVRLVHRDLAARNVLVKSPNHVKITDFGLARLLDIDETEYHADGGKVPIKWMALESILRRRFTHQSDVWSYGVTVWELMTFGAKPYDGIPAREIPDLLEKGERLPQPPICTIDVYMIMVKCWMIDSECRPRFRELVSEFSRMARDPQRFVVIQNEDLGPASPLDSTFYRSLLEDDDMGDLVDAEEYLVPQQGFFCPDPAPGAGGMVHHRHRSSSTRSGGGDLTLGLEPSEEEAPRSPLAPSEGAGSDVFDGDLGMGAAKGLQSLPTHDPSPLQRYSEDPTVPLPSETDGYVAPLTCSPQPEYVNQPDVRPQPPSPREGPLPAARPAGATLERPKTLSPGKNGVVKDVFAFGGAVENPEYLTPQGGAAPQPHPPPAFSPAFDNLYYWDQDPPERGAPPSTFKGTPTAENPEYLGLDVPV

Regarding `Cc1ccc2ncnc(Nc3ccc4c(c3)OCO4)c2c1` [Compound P14b], the IC50 on HER2 (setting [3]) is above 50 µM; on HER2 (setting [4]) it was above 50 µM; on human EGF receptor (setting [5]), below 50 µM; at human EGF receptor (setting [6]) it was 20.9 µM.
For the compound `N#CC(C#N)=Cc1cc(O)c(O)c(I)c1` [Compound M12], the IC50 on HER2 (setting [4]) was above 50 µM; on HER2 (setting [7]), above 50 µM; on human EGF receptor (setting [6]) it was 13.4 µM; at human EGF receptor (setting [8]), 13.4 µM.
Consider `Cc1cc2nc3c(nc2cc1C)-c1ccccc1C3=O` [Compound R15], for which the values for the IC50 on HER2 (setting [4]) and on human EGF receptor (setting [6]) were above 50 µM and 25 µM, respectively.
In the case of `N#C/C(=C\c1ccc(O)c(O)c1)C(=O)NCCCCc1ccccc1` [Compound M10], the IC50 was 30.6 µM at HER2 (setting [9]), 30.6 µM at HER2 (setting [4]), above 50 µM at human EGF receptor (setting [6]) and at least 50 µM at human EGF receptor (setting [8]).
As to `Cc1ccc2ncnc(Nc3ccc4c(c3)OCO4)c2c1` [Compound P14a], the IC50 was above 50 µM on HER2 (setting [3]), above 50 µM on HER2 (setting [4]), below 50 µM on human EGF receptor (setting [5]) and 22.2 µM at human EGF receptor (setting [6]).
For `N#C/C(=C\c1ccc([N+](=O)[O-])c(O)c1)C(=O)NCCCc1ccccc1` [Compound M39, (E)-3-(3-Hydroxy-4-nitrophenyl)-2-[(3-phenyl-n-propyl)aminocarbonyl]acrylonitrile], the IC50 came to 39 µM on HER2 (setting [7]) and 6.8 µM at human EGF receptor (setting [8]).
With `Cc1cc2nc(CBr)c(-c3ccccc3)nc2cc1C` [Compound R9], the figures for the IC50 on HER2 (setting [4]) and at human EGF receptor (setting [6]) were 20.7 µM and 35.5 µM, respectively.
As for `COc1cc2ncnc(Nc3cccc(Cl)c3)c2cc1OC` [Compound P13a], the IC50 is below 50 µM on HER2 (setting [3]) and 1.6 µM at HER2 (setting [4]).
As to `CC(C)c1cc(C=C(C#N)C#N)cc(C(C)C)c1O` [Compound M19], the IC50 at HER2 (setting [10]) was 10.6 µM; against HER2 (setting [9]), 10.6 µM; at human EGF receptor (setting [6]) it was above 50 µM; at human EGF receptor (setting [8]), above 50 µM.
With `CC(C)c1cc(/C=C(\C#N)C(=O)Nc2ccc(C(F)(F)F)cc2)cc(C(C)C)c1O` [Compound M28, (E)-3-(3,5-Diisopropyl-4-hydroxyphenyl)-2-[(4-trifluoromethyl)phenylaminocarbonyl]acrylonitrile], the IC50 in assay [1] (Homo sapiens, MCF7, 96 h) was found to be 12 µM; at HER2 (setting [7]), 2.2 µM; in assay [2] (Homo sapiens, MCF7, 96 h), 2000 nM.
For `CC(C)(C)c1cc(C=C(C#N)C#N)cc(Br)c1O` [Compound M14], the IC50 on HER2 (setting [4]) is above 50 µM; at HER2 (setting [7]), above 50 µM; at human EGF receptor (setting [6]), 37.2 µM; on human EGF receptor (setting [8]), 37.2 µM.
For `N#C/C(=C\c1cc(O)c(O)c(I)c1)C(=O)NCc1ccccc1` [Compound M23], the figures for the IC50 at HER2 (setting [7]) and at human EGF receptor (setting [8]) were 26 µM and 17 µM, respectively.
Turning to `CC(C)c1cc(/C=C(\C#N)C(N)=S)cc(C(C)C)c1O` [Compound M25, (E)-2-Aminothiocarbonyl-3-(3,5-diisopropyl-4-hydroxyphenyl)acrylonitrile], the results for the IC50 at HER2 (setting [7]) and at human EGF receptor (setting [8]) were 3.1 µM and above 100 µM, respectively.
For `Cc1cc(/C=C(\C#N)S(=O)(=O)/C(C#N)=C/c2cc(C)c(O)c(C)c2)cc(C)c1O` [Compound M38], the IC50 is above 100 µM in assay [1], 14 µM at HER2 (setting [7]), above 100000 nM in assay [2] and above 100 µM on human EGF receptor (setting [8]). At HER2 (cellular assays of the Examples, versus analogous compounds having bulkier R1 and R3 groups), the “activity in cellular assays” value is recorded as “less activity”.
As for `Clc1cc2ncc(-c3ccccc3)nc2cc1Cl` [Compound R14], the IC50 at HER2 (setting [4]) and at human EGF receptor (setting [6]) was 25 µM throughout.
As for `N#CC(C#N)=NNc1cccc(Cl)c1` [Compound Q11], the IC50 is 11.1 µM at HER2 (setting [10]) and above 50 µM on human EGF receptor (Estimated IC50 Cellular Kinase Assays EGFR (EGF-3T3), Table V). The “inhibition of HER2 activity” value against HER2 (significantly inhibit = IC50 less than 50 μM) is given as “significantly inhibited”.
With `CC(C)(C)c1cc(C=C(C#N)c2[nH]nc(N)c2C#N)cc(C(C)(C)C)c1O` [Compound M17], the IC50 at HER2 (setting [4]) was 8.58 µM; on HER2 (setting [7]), 8.58 µM; at human EGF receptor (setting [6]) it was 8.65 µM; at human EGF receptor (setting [8]), 8.65 µM.
